# In PubChem BioAssay (NCI):
#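 Step 1: Grow cells in 96-well plates. Step 2: Expose to compound for 48 hours at 5 concentrations. Step 3: Interpolate endpoints linearly; if unreached, use highest concentration. GI50 is the concentration that inhibits growth by half. TGI is the concentration that stops growth completely.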
# Key:
# Experiment in all cases: growth of human tumour cells (NCI), 48 h
# SF-539 CNS = test system: SF-539 CNS
# MDA-N = test system: MDA-N
# CAKI-1 renal = test system: CAKI-1 renal
# MDA-MB-435 = test system: MDA-MB-435
# MDA-MB-231 breast = test system: MDA-MB-231 breast
# HL-60(TB) leukemia = test system: HL-60(TB) leukemia
# SR leukemia = test system: SR leukemia
# ACHN renal = test system: ACHN renal
# SK-MEL-28 melanoma = test system: SK-MEL-28 melanoma
# SF-268 CNS = test system: SF-268 CNS
# IGROV1 ovarian = test system: IGROV1 ovarian
# NCI-H226 lung = test system: NCI-H226 lung
# UO-31 renal = test system: UO-31 renal
# NCI/ADR-RES ovarian = test system: NCI/ADR-RES ovarian
# UACC-257 melanoma = test system: UACC-257 melanoma
# SNB-75 CNS = test system: SNB-75 CNS
# HCT-15 colon = test system: HCT-15 colon
# SW-620 colon = test system: SW-620 colon
# SK-MEL-5 melanoma = test system: SK-MEL-5 melanoma
# OVCAR-4 ovarian = test system: OVCAR-4 ovarian
# MALME-3M melanoma = test system: MALME-3M melanoma
# BT-549 breast = test system: BT-549 breast
# 786-0 renal = test system: 786-0 renal
# SN12C renal = test system: SN12C renal
# UACC-62 melanoma = test system: UACC-62 melanoma
# PC-3 prostate = test system: PC-3 prostate
# OVCAR-5 ovarian = test system: OVCAR-5 ovarian
# SF-295 CNS = test system: SF-295 CNS
# RXF 393 renal = test system: RXF 393 renal
# K-562 leukemia = test system: K-562 leukemia
# OVCAR-3 ovarian = test system: OVCAR-3 ovarian
# A498 renal = test system: A498 renal
# KM12 colon = test system: KM12 colon
# OVCAR-8 ovarian = test system: OVCAR-8 ovarian
# HOP-62 NSCLC = test system: HOP-62 NSCLC
# HT29 colon = test system: HT29 colon
# NCI-H23 lung = test system: NCI-H23 lung
# RPMI-8226 leukemia = test system: RPMI-8226 leukemia
# LOX IMVI melanoma = test system: LOX IMVI melanoma
# MOLT-4 leukemia = test system: MOLT-4 leukemia
# EKVX NSCLC = test system: EKVX NSCLC
# NCI-H460 lung = test system: NCI-H460 lung
# MCF7 breast = test system: MCF7 breast
# SNB-19 CNS = test system: SNB-19 CNS
# TK-10 renal = test system: TK-10 renal
# HS 578T breast = test system: HS 578T breast
# COLO 205 colon = test system: COLO 205 colon
# SK-MEL-2 melanoma = test system: SK-MEL-2 melanoma
# NCI-H522 lung = test system: NCI-H522 lung
# HCT-116 colon = test system: HCT-116 colon
# U251 CNS = test system: U251 CNS
# HCC-2998 colon = test system: HCC-2998 colon
# T-47D breast = test system: T-47D breast
# HOP-92 NSCLC = test system: HOP-92 NSCLC
# DU-145 prostate = test system: DU-145 prostate
# CCRF-CEM leukemia = test system: CCRF-CEM leukemia
# SK-OV-3 ovarian = test system: SK-OV-3 ovarian
# M14 melanoma = test system: M14 melanoma
# A549 NSCLC = test system: A549 NSCLC
compound,measurement,setting,value
CCC[C@H]1C(=O)N=C(N)N1C(=O)OCc1ccccc1,TGI,SF-539 CNS,> 100 µM
same,TGI,MDA-N,> 100 µM
same,TGI,CAKI-1 renal,> 100 µM
same,TGI,MDA-MB-435,> 100 µM
same,TGI,MDA-MB-231 breast,> 100 µM
same,TGI,HL-60(TB) leukemia,> 100 µM
same,TGI,SR leukemia,> 100 µM
same,TGI,ACHN renal,> 100 µM
same,TGI,SK-MEL-28 melanoma,> 100 µM
same,TGI,SF-268 CNS,> 100 µM
same,TGI,IGROV1 ovarian,> 100 µM
same,TGI,NCI-H226 lung,> 100 µM
same,TGI,UO-31 renal,> 100 µM
same,TGI,NCI/ADR-RES ovarian,> 100 µM
same,TGI,UACC-257 melanoma,> 100 µM
same,TGI,SNB-75 CNS,> 100 µM
same,TGI,HCT-15 colon,> 100 µM
same,TGI,SW-620 colon,> 100 µM
same,TGI,SK-MEL-5 melanoma,> 100 µM
same,TGI,OVCAR-4 ovarian,> 100 µM
same,TGI,MALME-3M melanoma,> 100 µM
same,TGI,BT-549 breast,> 100 µM
same,TGI,786-0 renal,> 100 µM
same,TGI,SN12C renal,> 100 µM
same,TGI,UACC-62 melanoma,> 100 µM
same,TGI,PC-3 prostate,> 100 µM
same,TGI,OVCAR-5 ovarian,> 100 µM
same,TGI,SF-295 CNS,> 100 µM
same,TGI,RXF 393 renal,> 100 µM
same,TGI,K-562 leukemia,> 100 µM
same,TGI,OVCAR-3 ovarian,> 100 µM
same,TGI,A498 renal,> 100 µM
same,TGI,KM12 colon,> 100 µM
same,TGI,OVCAR-8 ovarian,> 100 µM
same,TGI,HOP-62 NSCLC,> 100 µM
same,TGI,HT29 colon,> 100 µM
same,TGI,NCI-H23 lung,> 100 µM
same,TGI,RPMI-8226 leukemia,> 100 µM
same,TGI,LOX IMVI melanoma,> 100 µM
same,TGI,MOLT-4 leukemia,> 100 µM
same,TGI,EKVX NSCLC,> 100 µM
same,TGI,NCI-H460 lung,> 100 µM
same,TGI,MCF7 breast,> 100 µM
same,TGI,SNB-19 CNS,> 100 µM
same,TGI,TK-10 renal,> 100 µM
same,TGI,HS 578T breast,> 100 µM
same,TGI,COLO 205 colon,> 100 µM
same,TGI,SK-MEL-2 melanoma,> 100 µM
same,TGI,NCI-H522 lung,> 100 µM
same,TGI,HCT-116 colon,> 100 µM
same,TGI,U251 CNS,> 100 µM
same,TGI,HCC-2998 colon,> 100 µM
COC(=O)[C@]12CC[C@@H](C)[C@H](C)[C@@H]1C1=CC[C@@H]3[C@@]4(C)C[C@@H](OC(C)=O)[C@H](O)[C@@](C)(COC(C)=O)[C@@H]4[C@H](O)C[C@@]3(C)[C@]1(C)CC2,GI50,SF-539 CNS,3.47 µM
same,TGI,SF-539 CNS,13.3 µM
same,GI50,CAKI-1 renal,2.82 µM
same,TGI,CAKI-1 renal,10.9 µM
same,GI50,MDA-MB-435,2.95 µM
same,TGI,MDA-MB-435,10.7 µM
same,GI50,MDA-MB-231 breast,1.87 µM
same,TGI,MDA-MB-231 breast,4.81 µM
same,GI50,HL-60(TB) leukemia,2.11 µM
same,TGI,HL-60(TB) leukemia,5.42 µM
same,GI50,SR leukemia,1.72 µM
same,TGI,SR leukemia,4.31 µM
same,GI50,ACHN renal,2.83 µM
same,TGI,ACHN renal,9.17 µM
same,GI50,SK-MEL-28 melanoma,2.42 µM
same,TGI,SK-MEL-28 melanoma,6.7 µM
same,GI50,T-47D breast,2.44 µM
same,TGI,T-47D breast,8.02 µM
same,GI50,SF-268 CNS,3.11 µM
same,TGI,SF-268 CNS,13.6 µM
same,GI50,IGROV1 ovarian,1.87 µM
same,TGI,IGROV1 ovarian,4.81 µM
same,GI50,NCI-H226 lung,3.19 µM
same,TGI,NCI-H226 lung,8.54 µM
same,GI50,UO-31 renal,2.01 µM
same,TGI,UO-31 renal,7.2 µM
same,GI50,NCI/ADR-RES ovarian,2.68 µM
same,TGI,NCI/ADR-RES ovarian,7.54 µM
same,GI50,UACC-257 melanoma,2.06 µM
same,TGI,UACC-257 melanoma,5.92 µM
same,GI50,SNB-75 CNS,2.35 µM
same,TGI,SNB-75 CNS,11.7 µM
same,GI50,HOP-92 NSCLC,1.53 µM
same,TGI,HOP-92 NSCLC,5.68 µM
same,GI50,HCT-15 colon,2.51 µM
same,TGI,HCT-15 colon,9.01 µM
same,GI50,SW-620 colon,2.75 µM
same,TGI,SW-620 colon,8.76 µM
same,GI50,DU-145 prostate,3.48 µM
same,TGI,DU-145 prostate,11.9 µM
same,GI50,SK-MEL-5 melanoma,1.78 µM
same,TGI,SK-MEL-5 melanoma,3.66 µM
same,GI50,OVCAR-4 ovarian,3.23 µM
same,TGI,OVCAR-4 ovarian,14.2 µM
same,GI50,MALME-3M melanoma,2.36 µM
same,TGI,MALME-3M melanoma,6.25 µM
same,GI50,BT-549 breast,2.18 µM
same,TGI,BT-549 breast,5.71 µM
same,GI50,786-0 renal,1.89 µM
same,TGI,786-0 renal,4.84 µM
same,GI50,CCRF-CEM leukemia,2.54 µM
same,TGI,CCRF-CEM leukemia,6.34 µM
same,GI50,PC-3 prostate,1.86 µM
same,TGI,PC-3 prostate,7.05 µM
same,GI50,OVCAR-5 ovarian,2.23 µM
same,TGI,OVCAR-5 ovarian,7.61 µM
same,GI50,SF-295 CNS,1.82 µM
same,TGI,SF-295 CNS,4.07 µM
same,GI50,RXF 393 renal,2.13 µM
same,TGI,RXF 393 renal,5.05 µM
same,GI50,K-562 leukemia,2.33 µM
same,TGI,K-562 leukemia,6.06 µM
same,GI50,OVCAR-3 ovarian,2.74 µM
same,TGI,OVCAR-3 ovarian,7.24 µM
same,GI50,A498 renal,2.04 µM
same,TGI,A498 renal,7.4 µM
same,GI50,KM12 colon,2.65 µM
same,TGI,KM12 colon,7.9 µM
same,GI50,OVCAR-8 ovarian,2.36 µM
same,TGI,OVCAR-8 ovarian,5.91 µM
same,GI50,SK-OV-3 ovarian,3.27 µM
same,TGI,SK-OV-3 ovarian,10.3 µM
same,GI50,M14 melanoma,1.96 µM
same,TGI,M14 melanoma,5.09 µM
same,GI50,HOP-62 NSCLC,1.89 µM
same,TGI,HOP-62 NSCLC,4.1 µM
same,GI50,HT29 colon,1.82 µM
same,TGI,HT29 colon,3.7 µM
same,GI50,NCI-H23 lung,2.73 µM
same,TGI,NCI-H23 lung,8.44 µM
same,GI50,RPMI-8226 leukemia,2.4 µM
same,TGI,RPMI-8226 leukemia,8.06 µM
same,GI50,LOX IMVI melanoma,1.64 µM
same,TGI,LOX IMVI melanoma,3.1 µM
same,GI50,MOLT-4 leukemia,1.66 µM
same,TGI,MOLT-4 leukemia,4.24 µM
same,GI50,EKVX NSCLC,2.22 µM
same,TGI,EKVX NSCLC,6.69 µM
same,GI50,NCI-H460 lung,2.05 µM
same,TGI,NCI-H460 lung,4.02 µM
same,GI50,MCF7 breast,2.01 µM
same,TGI,MCF7 breast,5.71 µM
same,GI50,SNB-19 CNS,2.78 µM
same,GI50,TK-10 renal,2.68 µM
same,TGI,TK-10 renal,8.97 µM
same,GI50,HS 578T breast,2.95 µM
same,TGI,HS 578T breast,12.6 µM
same,GI50,COLO 205 colon,1.63 µM
same,TGI,COLO 205 colon,3.2 µM
same,GI50,SK-MEL-2 melanoma,2.84 µM
same,TGI,SK-MEL-2 melanoma,7.39 µM
same,GI50,A549 NSCLC,2.21 µM
same,TGI,A549 NSCLC,8.34 µM
same,GI50,NCI-H522 lung,1.94 µM
same,TGI,NCI-H522 lung,4.33 µM
same,GI50,HCT-116 colon,1.95 µM
same,TGI,HCT-116 colon,4.11 µM
same,GI50,U251 CNS,1.87 µM
same,TGI,U251 CNS,4.01 µM
same,GI50,HCC-2998 colon,2.14 µM
same,TGI,HCC-2998 colon,4.57 µM
